Experimental data: US7884136B2, “Modified-release formulations of a bupropion salt” (Biovail Laboratories International S.R.L., priority 2005, dated 2011)

Assay: not given
Settings: Ionic Surfactants; as reported by the manufacturer; cited from earlier work

Molecule | HLB
CCCCCCCCCCCCOS(=O)(=O)[O-].[Na+] [Sodium lauryl sulfate (dodecyl)] | 40

Same assay, conditions: Lower Alcohol Fatty Acid Ester Surfactants; as reported by the manufacturer; cited from earlier work

Molecule | HLB
CCCCCCCC/C=C\CCCCCCCC(=O)OCC [Ethyl oleate] | <10
CCCCCCCCCCCCCC(=O)OC(C)C [Isopropyl myristate] | <10
CCCCC/C=C\C/C=C\CCCCCCCC(=O)OCC [Ethyl linoleate] | <10

Same assay, conditions: Mono- and Diglyceride Surfactants; cited from earlier work

Molecule | HLB
CCCCCCCCCCCCCC(=O)OCC(O)CO (stereo not shown) [Glyceryl monomyristate (C14)] | 3-4
CCCCCC(=O)OCC(O)CO (stereo not shown) [Monocaproin (C6)] | <10
CCCCCCCCCCCC(=O)OCC(O)CO (stereo not shown) [Monolaurin] | <10
CCCCCCCC(=O)OCC(O)CO (stereo not shown) [Glyceryl caprylate] | 5-6
Glyceryl dioleate | 3-4
Glyceryl monostearate | 4.4
CCCCC/C=C\C/C=C\CCCCCCCC(=O)OCC(O)CO (stereo not shown) [Glycerol monolinoleate] | 3-4
CCCCCCCCCCCCCCCCCC(=O)OCC(O)CO (stereo not shown) [Glycerol monostearate] | 5-9
CCCCCCCC/C=C/CCCCCCCC(=O)OCC(O)CO (stereo not shown) [Monoelaidin (C18:1)] | <10
CCCCCCCCCCCCCCCC(=O)OCC(O)CO (stereo not shown) [Glycerol monopalmitate] | 4
CC(=O)OCC(O)CO (stereo not shown) [Glyceryl acetate] | <10

Same assay, conditions: PEG Glycerol Fatty Acid Esters; cited from earlier work

Molecule | HLB
PEG-30 glyceryl oleate | >10

Same assay, conditions: PEG-Fatty Acid Diester Surfactants; cited from earlier work

Molecule | HLB
PEG-4 dioleate | 6
PEG-12 dilaurate | 11.7
PEG-6 distearate | 6.5
PEG-6 dilaurate | 9.8
PEG-12 dioleate | 10
PEG-400 dioleate | >10
PEG-4 dilaurate | 6
PEG-10 dipalmitate | >10
PEG-400 distearate | >10

Same assay, conditions: PEG-Fatty Acid Monoester Surfactants; cited from earlier work

Molecule | HLB
PEG-1 stearate | 2
PEG 100, 200, 300 monolaurate | >10
PEG-40 stearate | >10
PEG-7 oleate | 10.4
PEG-2 stearate | 4
PEG 4-100 monooleate | >8
PEG-200 oleate | >10
PEG 4-100 monolaurate | >9
PEG-9 oleate | >10
PEG-15 stearate | 14
PEG 400 dioleate | >10
PEG-6 stearate | 9.7
PEG 400 distearate | >10
PEG 400-1000 monostearate | >10
PEG-4 oleate | 8.3
PEG-2 oleate | 4.5
PEG-100 oleate | 18.8
PEG-9 stearate | >10
PEG-5 oleate | 9.5
PEG-12 ricinoleate | >10
PEG-50 stearate | >10

Same assay, conditions: Polyglycerized Fatty Acids; cited from earlier work

Molecule | HLB
Polyglyceryl-6 pentaoleate | <10
Polyglyceryl-4 pentaoleate | <10
Polyglyceryl-3 distearate | <10
Polyglyceryl-10 decaoleate | 3.5
Polyglyceryl-3 oleate | 6.5
Polyglyceryl-2 stearate | 5-7
Polyglyceryl-4 oleate | 5-7
Polyglyceryl-10 decaisostearate | <10
Polyglyceryl-2 isostearate | 5-7
Polyglyceryl-2 dioleate | 7

Same assay, conditions: Propylene Glycol Fatty Acid Esters; cited from earlier work

Molecule | HLB
CCCCCCCCCCCCCCCCCC(=O)OCC(C)OC(=O)CCCCCCCCCCCCCCCCC (stereo not shown) [Propylene glycol distearate] | >6
CCCCCCCCCC(=O)OCC(C)OC(=O)CCCCCCCCC (stereo not shown) [Propylene glycol dicaprate] | >6

Same assay, conditions: Sorbitan Fatty Acid Ester Surfactants; as reported by the manufacturer; cited from earlier work

Molecule | HLB
Sorbitan sesquistearate | 4.2
Sorbitan trioleate | 4.3
Sorbitan monoisostearate | 4.7
Sorbitan monostearate | 4.7
Sorbitan monooleate | 4.3

Same assay, conditions: Sterol and Sterol Derivative Surfactants; cited from earlier work

Molecule | HLB
PEG-30 cholestanol | >10
PEG-24 cholesterol ether | >10

Same assay, conditions: Sugar Ester Surfactants; as reported by the manufacturer; cited from earlier work

Molecule | HLB
Sucrose dipalmitate | 7.4

Same assay, conditions: Transesterification Products of Oils and Alcohols; cited from earlier work

Molecule | HLB
CCCCCCCCCCCCCCCCCC(=O)OCC(COC(=O)CCCCCCCCCCCCCCCCC)(COC(=O)CCCCCCCCCCCCCCCCC)COC(=O)CCCCCCCCCCCCCCCCC [Pentaerythrityl tetrastearate] | <10
CCCCCCCC/C=C\CCCCCCCC(=O)OCC(COC(=O)CCCCCCC/C=C\CCCCCCCC)(COC(=O)CCCCCCC/C=C\CCCCCCCC)COC(=O)CCCCCCC/C=C\CCCCCCCC [Pentaerythrityl tetraoleate] | <10
Pentaerythrityl tetraisostearate | <10

Assay: Recrystallization screen for bupropion hydrobromide polymorphic forms (PXRD)
Assay type: physicochemical
Settings: Form I in rotavapor 100° C. 24 h
Protocol: It is well known that organic molecules can crystallize into solid forms. Moreover the same organic compound may assume different crystalline arrangements in solid form, depending on the conditions under which the crystal product is formed. This phenomenon is commonly known as polymorphism. A study was undertaken to explore the polymorphic forms of bupropion hydrobromide. The crystal forms of the products obtained in this study were determined by powder X-ray diffraction (PXRD). A RIGAKU miniflex instrument (Radiation Cu K∝, generator 30 KV, filter Ni) was used to obtain the PXRD data.
Polymorphic form II was obtained by recrystallization of form 1 from solvents or mixtures of solvents such as acetone-water, methanol, dichloromethane, toluene-methanol and dimethylcarbonate-methanol. Polymorphic form III was obtained by recrystallization of polymorphic form I in methanol. Table 80 provides a list of recrystallization conditions and the polymorphic form obtained under each set of conditions.

Molecule | K.F. (%)
Br.CC(NC(C)(C)C)C(=O)c1cccc(Cl)c1 (stereo not shown) [Bupropion Hydrobromide 116] | 0.45%

Same assay, conditions: recrystallized product; solvent/cosolvent differ per trial, trial no. in label

Molecule | K.F. (%)
Br.CC(NC(C)(C)C)C(=O)c1cccc(Cl)c1 (stereo not shown) [Bupropion Hydrobromide 098A] | 0.13%
Br.CC(NC(C)(C)C)C(=O)c1cccc(Cl)c1 (stereo not shown) [Bupropion Hydrobromide 122] | 1.3%
Br.CC(NC(C)(C)C)C(=O)c1cccc(Cl)c1 (stereo not shown) [Bupropion Hydrobromide 108] | 0.14%
Br.CC(NC(C)(C)C)C(=O)c1cccc(Cl)c1 (stereo not shown) [Bupropion Hydrobromide 112] | 0.18%
Br.CC(NC(C)(C)C)C(=O)c1cccc(Cl)c1 (stereo not shown) [Bupropion Hydrobromide 117] | 0.32%
Br.CC(NC(C)(C)C)C(=O)c1cccc(Cl)c1 (stereo not shown) [Bupropion Hydrobromide 097] | 0.06%
Br.CC(NC(C)(C)C)C(=O)c1cccc(Cl)c1 (stereo not shown) [Bupropion Hydrobromide 099] | 0.12%
Br.CC(NC(C)(C)C)C(=O)c1cccc(Cl)c1 (stereo not shown) [Bupropion Hydrobromide 111] | 0.32%
Br.CC(NC(C)(C)C)C(=O)c1cccc(Cl)c1 (stereo not shown) [Bupropion Hydrobromide 113] | 0.39%
Br.CC(NC(C)(C)C)C(=O)c1cccc(Cl)c1 (stereo not shown) [Bupropion Hydrobromide 098B] | 0.16%

Assay: pH of 0.5% aqueous solution of bupropion salts
Assay type: physicochemical
Settings: 0.5% aqueous solution, original API salts
Protocol: (§1) The eight salts were first evaluated by HPLC, KF, pH and DSC for purity, water content, aqueous pH and possible polymorphs.
(§2) The salts were analysed by DSC (at 10° C./min from 30° C. up to 400° C.) and the pH (aq. 0.5%), and the moisture content by KF were also measured. The TGA was performed on the HCl, maleate, tosylate and HBr salts.

Molecule | pH (aq. 0.5%), Original (Initial APIs)
Bupropion Fumarate | 3.84
CC(NC(C)(C)C)C(=O)c1cccc(Cl)c1.CC(NC(C)(C)C)C(=O)c1cccc(Cl)c1.O=C(O)C(O)C(O)C(=O)O (stereo not shown) [Bupropion tartrate neutral] | 3.62
CC(NC(C)(C)C)C(=O)c1cccc(Cl)c1.O=C(O)C(O)C(O)C(=O)O (stereo not shown) [Bupropion tartrate acid] | 3.62
Bupropion succinate | 4.82

Assay: Forced degradation stability study of bupropion salts spiked with placebo/excipients, closed vials, 40° C./75% RH, HPLC assay and impurities
Settings: 10 days, 40° C./75% RH, closed vials, with or without excipients
Protocol: The stability of the salts was evaluated based on the formation of the main degradation products (see below) as determined by HPLC analysis and the % potency (or assay) of the API, after specific time periods in the stability chamber. The effect of the addition of solvents, such as water, ethanol and isopropyl alcohol, was also studied.
The samples of each salt and the spiked salts with the bupropion HCl XL were prepared under the conditions mentioned in Table 4. […] The stability of the bupropion salts were evaluated based on the formation of the main degradation product 3-chlorobenzoic acid (3-CBZ) and the intermediate degradation products diketone 827U76 and the ketohydroxyl derivatives (20U78 and 852U77) (Scheme 2).
As mentioned above, the stability samples were prepared in 2 mL vials and used directly for assay and impurity analysis by HPLC without further sample preparations to minimize errors.

Molecule | Stability in the 10 days forced degradation study
tartrate | not stable

Same assay, conditions: DS and spiked DS, 40° C./75% RH

Molecule | Stability in the forced degradation stability studies, overall
oxalate | very poor
tartrate | very poor

Same assay, conditions: In IPA/EtOH, 32 days, closed vials

Molecule | Content of impurity 3-CBZ, order of salts | Content of impurity 852U77, order of salts | Total imp., order of salts
Bupropion Fumarate | maleate > HBr > HCl > Fumarate | fumarate > HBr ≈ HCl ≈ maleate ≈ tosylate | fumarate > maleate > HBr > HCl > tosylate

Same assay, conditions: In water, 32 days, closed vials

Molecule | Content of impurity 3-CBZ, order of salts | Content of impurity 852U77, order of salts | Total imp., order of salts
Bupropion Fumarate | HCl > HBr ≈ maleate ≈ fumarate | fumarate > HBr > maleate > HCl | fumarate > HBr > HCl > tosylate > maleate

Assay: Moisture content of bupropion salts by KF
Assay type: physicochemical
Settings: original API salts
Protocol: as §1, §2

Molecule | KF (moisture content), Original (Initial APIs)
Bupropion Fumarate | 0.09%
CC(NC(C)(C)C)C(=O)c1cccc(Cl)c1.CC(NC(C)(C)C)C(=O)c1cccc(Cl)c1.O=C(O)C(O)C(O)C(=O)O (stereo not shown) [Bupropion tartrate neutral] | 0.14%
CC(NC(C)(C)C)C(=O)c1cccc(Cl)c1.O=C(O)C(O)C(O)C(=O)O (stereo not shown) [Bupropion tartrate acid] | 0.18%
Bupropion succinate | 0.13%
